Measurements reported in patent US20240116946A1 (Gilead Sciences, Inc., priority 2022, published 2024).
Where two headings read alike, the source gives them in different places.

How the values were obtained:
SARS-CoV-2-NLuc = test: microbe, parasite or virus in culture; format: cell-based, SARS Coronavirus 2
[1] = target: recombinant SARS-CoV-2 Main protease (Mpro) (Severe acute respiratory syndrome coronavirus 2 (2019-nCoV) (SARS-CoV-2), UniProt P0DTD1); test: Cov Mpro Biochemical IC50 Assay; conditions: read-out: MPro IC50
[2] = Severe acute respiratory syndrome coronavirus, 48 h, read-out: MPro EC50
[3] = recombinant SARS-CoV-2 Mpro 7.5 nM, fluorogenic peptide substrate 40 μM
[4] = Severe acute respiratory syndrome coronavirus, 48 h; read-out: MPro EC50
[5] = recombinant SARS-CoV-2 Mpro, fluorogenic peptide substrate

For `COc1cc(-c2cc3c(s2)c(=O)n(-c2cncc4nc(C5CCC5)n(C)c24)c(=O)n3CCC#N)c(Cl)cc1F` [Example 755], which EC50 (SARS-CoV-2-NLuc; [2]) is on record?
Its EC50 is 243 nM.

What about the IC50 [1, 3] of the same compound?
The IC50 was 33.3 nM.

What does the source list for `COCCOc1c(C)cncc1-n1c(=O)[nH]c2cc(-c3ccccc3Cl)sc2c1=O` [Example 214]?
EC50 (SARS-CoV-2-NLuc; [4]): 20.1 nM; IC50 [1, 5]: 11.1 nM

Which EC50 (SARS-CoV-2-NLuc; [2]) does the source give for `O=c1[nH]c2cc(-c3ccc4ccccc4c3)ccc2c(=O)n1-c1cncc2ccccc12` [Example 51] here?
Its EC50 is 6800 nM.

And the IC50 [1, 5]?
Its IC50 is over 100000 nM.

For `COc1cc(-c2cc3[nH]c(=O)n(-c4cncc5cnn(CC(F)F)c45)c(=O)c3s2)c(Cl)cc1F` [Example 730], which EC50 (SARS-CoV-2-NLuc; [2]) is on record?
Its EC50 is 28.9 nM.

And the IC50 [1, 3]?
Its IC50 is 10.1 nM.

Which results are given for `N#CCCn1c(=O)n(-c2cncc3nnn(C4CC4)c23)c(=O)c2sc(-c3ccccc3Cl)cc21` [Example 938]?
EC50 (SARS-CoV-2-NLuc; [2]): 77 nM; IC50 [1, 3]: 17.6 nM

With `COc1ccc(Cl)c(-c2cc3[nH]c(=O)n(-c4cncc5ccc(N6CCNC(=O)C6)cc45)c(=O)c3s2)c1` [Example 416] as the compound, how does the EC50 (SARS-CoV-2-NLuc; [2]) read?
The EC50 was 187 nM.

What about the IC50 [1, 3] of the same compound?
The IC50 was 4.63 nM.

What does the source list for `COc1ccc(Cl)c(-c2ccc3c(=O)n(-c4cncc5ccc(N6CCC(F)(F)C6)cc45)c(=O)[nH]c3c2)c1` [Example 407]?
EC50 (SARS-CoV-2-NLuc; [2]): 184 nM; IC50 [1, 3]: 79.7 nM

How did the EC50 (SARS-CoV-2-NLuc; [2]) turn out when `Cc1cc(-c2cccc(Cl)c2-c2ccc3c(=O)n(-c4cncc5ccccc45)c(=O)[nH]c3c2)ccn1` [Example 331] was run?
The EC50 was 17 nM.

And the IC50 [1, 5]?
The IC50 was 10.4 nM.

What does the source list for `Cc1ccc2nn(C)cc2c1-c1cc2[nH]c(=O)n(-c3cncc4cnn(C)c34)c(=O)c2s1` [Example 1015]?
EC50 (SARS-CoV-2-NLuc; [2]): 597 nM; IC50 [1, 3]: 50.9 nM

`CC(C)COc1ccc(Cl)c(-c2ccc3c(=O)n(-c4cncc5ccccc45)c(=O)[nH]c3c2)c1` [Example 256] was tested. Which EC50 (SARS-CoV-2-NLuc; [2]) did it give?
Its EC50 is 699 nM.

And the IC50 [1, 5]?
Its IC50 is 3990 nM.

Which results are given for `CC1(C)Cc2c(-c3cccc(Cl)c3-c3ccc4c(=O)n(-c5cncc6ccccc56)c(=O)[nH]c4c3)cnn2C1` [Example 190]?
EC50 (SARS-CoV-2-NLuc; [2]): 16.4 nM; IC50 [1, 5]: 19.7 nM

Which EC50 (SARS-CoV-2-NLuc; read-out: MPro EC50) does the source give for `COc1cc(-c2cc3[nH]c(=O)n(-c4cncc5cccc(Cl)c45)c(=O)c3s2)c(Cl)cc1F` [Example 1075] here?
The EC50 was 11.7 nM.

What about the IC50 [1, 3] of the same compound?
The IC50 was 14.8 nM.

What does the source list for `CNC(=O)c1cccc(-c2cccc(Cl)c2-c2ccc3c(=O)n(-c4cncc5ccccc45)c(=O)[nH]c3c2)c1` [Example 189]?
EC50 (SARS-CoV-2-NLuc; [2]): 18.2 nM; IC50 [1, 5]: 8.58 nM

What does the source list for `COc1ccc(Cl)c(-c2cc3[nH]c(=O)n(-c4cncc5cccnc45)c(=O)c3s2)c1` (single isomer, unassigned) [Example 467, 6-(2-chloro-5-methoxyphenyl)-3-(1,6-naphthyridin-8-yl)thieno[3,2-d]pyrimidine-2,4(1H,3H)-dione]?
EC50 (SARS-CoV-2-NLuc; read-out: MPro EC50): 38.1 nM; IC50 [1, 3]: 11.4 nM

How did the EC50 (SARS-CoV-2-NLuc; [4]) turn out when `Cc1c(Cl)cncc1-n1c(=O)c2sc(-c3cc(F)c(F)cc3Cl)cc2n(CCC#N)c1=O` [Example 847] was run?
The EC50 was 19.8 nM.

What about the IC50 [1, 3] of the same compound?
The IC50 was 8.09 nM.

Which results are given for `COc1ccc(Cl)c(-c2cc3[nH]c(=O)n(-c4cncc5sc(C(N)=O)c(C)c45)c(=O)c3s2)c1` [Example 1048, 4-(6-(2-chloro-5-methoxyphenyl)-2,4-dioxo-1,4-dihydrothieno[3,2-d]pyrimidin-3(2H)-yl)-3-methylthieno[2,3-c]pyridine-2-carboxamide]?
EC50 (SARS-CoV-2-NLuc; [4]): 9.86 nM; IC50 [1, 3]: 5.23 nM

With `O=c1[nH]c2cc(-c3ccccc3Cl)sc2c(=O)n1-c1cncc2ccc(N3CCOCC3)cc12` [Example 385, 6-(2-chlorophenyl)-3-(6-morpholinoisoquinolin-4-yl)thieno[3,2-d]pyrimidine-2,4(1H,3H)-dione] as the compound, how does the EC50 (SARS-CoV-2-NLuc; [2]) read?
Its EC50 is 14 nM.

And the IC50 [1, 5]?
The IC50 was 5.51 nM.

`COc1cncc(-n2c(=O)c3sc(-c4cc(OC)c(F)cc4Cl)cc3n(CCC#N)c2=O)c1` [Example 870] was tested. Which EC50 (SARS-CoV-2-NLuc; [2]) did it give?
Its EC50 is 3.41 nM.

What about the IC50 [1, 3] of the same compound?
Its IC50 is 2.89 nM.

What does the source list for `O=c1[nH]c2cc(-c3ccccc3Cl)sc2c(=O)n1-c1cncc(C(F)(F)F)c1` [Example 576, 6-(2-chlorophenyl)-3-(5-(trifluoromethyl)pyridin-3-yl)thieno[3,2-d]pyrimidine-2,4(1H,3H)-dione]?
EC50 (SARS-CoV-2-NLuc; [4]): 153 nM; IC50 [1, 3]: 174 nM

For `Cc1ccc(-c2cc3c(s2)c(=O)n(-c2cncc4cnn(C)c24)c(=O)n3CCC#N)c(C#N)c1` [Example 840], which EC50 (SARS-CoV-2-NLuc; [2]) is on record?
The EC50 was 43.3 nM.

And the IC50 [1, 3]?
The IC50 was 16.8 nM.
